What all share (experiment): growth of human tumour cells (NCI), 48 h
In assay [1] the test system is MOLT-4 leukemia.
Assay [2] has as its system NCI-H226 lung.
The subject of assay [3] is SN12C renal.
The test system of assay [4] is NCI-H23 lung.
For assay [5], the system named is ACHN renal.
Assay [6] relates to LOX IMVI melanoma.
Assay [7] relates to IGROV1 ovarian.
Assay [8] deals with COLO 205 colon.
For assay [9], the system named is 786-0 renal.
Assay [10] concerns OVCAR-5 ovarian.
Assay [11] concerns A498 renal.
Assay [12] concerns SK-MEL-5 melanoma.
Assay [13] concerns TK-10 renal.
Assay [14] relates to BT-549 breast.
The test system of assay [15] is MDA-MB-435.
The subject of assay [16] is RXF 393 renal.

Each structure is given as a SMILES string.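 Briefly, cells in 96-well plates were exposed to five compound concentrations for 48 h, and endpoints were estimated by linear interpolation. Definition used: TGI = concentration required for complete inhibition of growth.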

`COc1ccccc1OCc1nnc(SCC(=O)O)n1-c1ccccc1`: the TGI in assay [1], in assay [2], in assay [3], in [4], in [5] and in [6] was above 100 µM each time. Also, the TGI in assay [7], in assay [8], in assay [9], in assay [10], in assay [11] and in assay [12] was above 100 µM in each case. This compound also showed a TGI in [13] above 100 µM.

Take `O=c1cc2oc3ccc4ccccc4c3cc-2c(=O)[nH]1`: the TGI was found to be 8.02 µM in assay [1]; 11.2 µM in [14]; 4.78 µM in [4]; 32 µM in assay [5]; 21 µM in assay [6]; 27.4 µM in assay [7]. The TGI in assay [15] stood at 25 µM; in assay [8] it was 30 µM; in assay [9], 26.7 µM; in assay [10], 32.4 µM; in [11], 31.8 µM; in assay [12], 29.3 µM.

For the compound `Clc1ccc(OCc2nnc(CCCCCCCCc3nnc(COc4ccc(Cl)cc4)o3)o2)cc1`, the TGI in assay [1], in [2], in assay [3], in assay [14], in assay [4] and in assay [5] was above 100 µM throughout. In addition, the TGI in assay [16], in assay [15], in assay [8], in [9], in [10] and in [11] was above 100 µM each time. Also, the TGI in assay [12] and in assay [13] was above 100 µM throughout.

With `CCOP(=O)(C/C(=N/NC(C)(C)C)C(=O)Nc1nc2ccc(C)cc2s1)OCC`, the TGI in assay [1], in assay [2], in assay [3], in assay [4], in assay [5] and in [16] was above 100 µM each time. The TGI in assay [6], in assay [7], in assay [8], in assay [9], in assay [10] and in [11] was above 100 µM each time. Also, the TGI in assay [12] and in [13] was above 100 µM throughout.

Turning to `COc1cccc(N2CCc3c(C)c(C#N)c4nc5ccccc5n4c32)c1`, the TGI in assay [2], in [3], in assay [14], in assay [4], in [5] and in assay [16] was above 100 µM in each case. Besides, the TGI in assay [6], in [7], in assay [15], in assay [8], in assay [9] and in [10] was above 100 µM in each case. Also, the TGI in [11], in assay [12] and in assay [13] was above 100 µM each time.

Consider `COc1cccc(NC(=O)c2c(SC)n[nH]c2N)c1`, for which the TGI in [1], in assay [2], in assay [3], in [14], in assay [5] and in assay [16] was above 100 µM in each case. Further, the TGI in assay [6], in assay [7], in assay [15], in assay [8], in assay [9] and in assay [10] was above 100 µM in each case. The TGI in assay [11], in assay [12] and in [13] was above 100 µM each time.

On to `Cc1ccccc1N=Nc1ccc(N=Nc2c(O)ccc3cc(S(=O)(=O)O)cc(S(=O)(=O)O)c23)c(C)c1`, for which the TGI in [1], in assay [2], in assay [14], in [4], in [5] and in assay [16] was above 100 µM in each case. Moreover, the TGI in assay [7], in [15], in assay [8], in [9], in assay [10] and in assay [12] was above 100 µM each time. This compound had a TGI in [13] above 100 µM.

For `COC(=O)C(=O)C(C(=O)C(=O)Nc1ccc([N+](=O)[O-])cc1C#N)c1nc2ccc([N+](=O)[O-])cc2[nH]c1=O` (stereo unspecified), the TGI in assay [1], in assay [2], in assay [3], in [5], in [16] and in [6] was above 100 µM throughout. Besides, the TGI in [8], in assay [9], in [10], in assay [11] and in assay [13] was above 100 µM throughout.

With `CCN(CC)CCNC(=O)c1ccccc1Nc1c(Cl)cccc1Cl`, the TGI in [1] came to 31.2 µM; in [2], 38.5 µM; in assay [3], 27.1 µM; in assay [4] it was 33.3 µM; in [5], 31.3 µM; in assay [16], 27.9 µM. In addition, the TGI amounted to 24.3 µM in [6]; 36.1 µM in assay [7]; 26.7 µM in assay [8]; 19 µM in assay [9]; 20.4 µM in assay [10]; 24.2 µM in assay [12]. The compound also gave a TGI in [13] of 24.8 µM.

For `COc1cc2c(cc1OC)[C@]1(O)C(=O)c3ccc4c(c3O[C@@H]1CO2)C[C@H](C(C)(C)O)O4`, the TGI in assay [1], in [4], in [5], in assay [16], in assay [6] and in [7] was above 100 µM each time. Also, the TGI in assay [8], in assay [9], in [10], in [11] and in [13] was above 100 µM throughout.

(Values after PubChem BioAssay (NCI).)
